Measured values as given in patent publication US20120028045A1, “Processes for the Preparation of Indiplon and Intermediates Thereof” (Glenmark Generics LTD, priority 2009, published 2012).

How the values were obtained:
Assay type in all cases: physicochemical
[1] = Particle size distribution (laser light scattering, Malvern Mastersizer 2000); conditions: crystal particles of indiplon
From the text: As used herein “Particle Size Distribution (P.S.D.)” means the cumulative volume size distribution of equivalent spherical diameters as determined by laser diffraction at 1 bar dispersive pressure in Sympatec Helos equipment.
“Mean particle size distribution, i.e., d (0.5)” correspondingly, means the median of said particle size distribution.
The particle size can be determined by such techniques as, for example, Malvern light scattering, a laser light scattering technique, etc., while herein, used Malvern Mastersizer 2000. It is noted the notation Dx means that X % of the particles have a diameter less than a specified diameter D. The particle sizes of the Indiplon can be obtained by, for example, any milling, grinding, micronizing or other particle size reduction method known in the art to bring the solid state indiplon any of the foregoing desired particle size range.

[2] = Bulk density as per USP method I
[3] = Specific surface area by BET (nitrogen absorption); conditions: crystal particles of indiplon
From the text: Specific surface area is defined in units of square meters per gram (m^2/g). It is usually measured by nitrogen absorption analysis. In this analysis, nitrogen is absorbed on the surface of the substance. The amount of the absorbed nitrogen (as measured during the absorption or the subsequent desorption process) is related to the surface area via a formula known as the B. ET. formula.

SMILES: CC(=O)N(C)c1cccc(-c2ccnc3c(C(=O)c4cccs4)cnn23)c1 [indiplon, N-methyl-N-[3-[3-(thien-2-ylcarbonyl)pyrazolo[1,5-a]pyrimidin-7-yl]phenyl]acetamide]
- Particle size Distribution d(0.1) [1]: d(0.1) 4.949 μm
- Particle size Distribution d(0.9) [1]: d(0.9) 24.325 μm
- Particle size Distribution d(0.5) ([1]; median particle size): d(0.5) 11.641 μm
- Bulk Density, after tapping (750) ([2]; after tapping (750), USP method I): After tapping (750) = 0.47 g/ml as per USP
- Bulk Density, as such ([2]; as such (untapped)): As such = 0.24 g/ml
- Surface area by BET [3]: 1.41 m^2/gm
